Where a name gives a salt, the structure may show the parent alone.

This passage reports Ki results from patent US7186732B2, “Non-imidazole aryloxyalkylamines” (Ortho-McNeil Pharmaceutical, Inc., priority 2000, dated 2007).

The target in one assay is T1, human histamine H3 receptor (Homo sapiens, UniProt Q9Y5N1).
T1 construct: expressed in transfected cells; membranes prepared from cell pellets
T1 sequence (Q9Y5N1 whole entry): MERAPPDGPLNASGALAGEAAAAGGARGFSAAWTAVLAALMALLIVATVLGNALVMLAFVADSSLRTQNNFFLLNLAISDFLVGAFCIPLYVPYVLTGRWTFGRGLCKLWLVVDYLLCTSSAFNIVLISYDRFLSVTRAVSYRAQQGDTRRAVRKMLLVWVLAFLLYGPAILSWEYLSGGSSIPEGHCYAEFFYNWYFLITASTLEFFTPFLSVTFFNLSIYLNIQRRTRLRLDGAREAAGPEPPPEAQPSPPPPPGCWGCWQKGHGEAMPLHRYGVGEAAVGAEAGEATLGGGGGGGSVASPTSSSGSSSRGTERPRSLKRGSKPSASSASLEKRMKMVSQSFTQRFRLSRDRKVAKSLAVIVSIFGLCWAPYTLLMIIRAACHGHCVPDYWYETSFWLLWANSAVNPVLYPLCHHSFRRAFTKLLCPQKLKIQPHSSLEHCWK
Description: [3H]-N-methylhistamine binding to membranes of histamine H3 receptor-expressing SK-N-MC cells. Conditions: 0.8 nM [3H]-N-methylhistamine, 45 min at 25° C., SK-N-MC cell membranes; Ki=(IC50)/(1+([L]/(Kd)); read-out: Ki. The protocol:
Thus in the present invention receptor binding was determined using the human histamine H3 receptor (See Lovenberg et al Mol. Pharmacol. 1999, 1107). Screening using the human receptor is particularly important for the identification of new therapies for the treatment of human disease. Conventional binding assays for example are determined using rat synaptosomes (Garbarg et al J. Pharmacol. Exp. Ther. 1992, 263, 304), rat cortical membranes (West et al Mol. Pharmacol. 1990, 610), and guinea pig brain (Korte et al Biochem. Biophys. Res. Commun. 1990, 978).
Transfection of Cells with Human Histamine Receptor
A 10 cm tissue culture dish with a confluent monolayer of SK-N-MC cells was split two days prior to transfection. Using sterile technique the media was removed and the cells were detached from the dish by the addition of trypsin. One fifth of the cells were then placed onto a new 10 cm dish. Cells were grown in a 37° C. incubator with 5% CO2 in Minimal Essential Media Eagle with 10% Fetal Bovine Serum. After two days cells were approximately 80% confluent. These were removed from the dish with trypsin and pelleted in a clinical centrifuge. The pellet was then re-suspended in 400 μL complete media and transferred to an electroporation cuvette with a 0.4 cm gap between the electrodes (Bio-Rad #165–2088). One microgram of supercoiled H3 receptor cDNA was added to the cells and mixed. The voltage for the electroporation was set at 0.25 kV, the capacitance was set at 960 μF. After electroporation the cells were diluted into 10 mL complete media and plated onto four 10 cm dishes. Because of the variability in the efficiency of electroporation, four different concentrations of cells were plated. The ratios used were; 1:20, 1:10, 1:5, with the remainder of the cells being added to the fourth dish. The cells were allowed to recover for 24 hours before adding the selection media (complete media with 600 μg/mL G418). After 10 days dishes were analyzed for surviving colonies of cells. Dishes with well isolated colonies were used. Cells from individual colonies were isolated and tested. SK-N-MC cells were used because they give efficient coupling for inhibition of adenylate cyclase. The clones that gave the most robust inhibition of adenylate cyclase in response to histamine were used for further study.
[^3H]-N-methylhistamine Binding
Cell pellets from histamine H3 receptor-expressing SK-N-MC cells were homogenized in 20 mM TrisHCI/0.5 mM EDTA. Supernatants from a 800 g spin were collected, recentrifuged at 30,000 g for 30 minutes. Pellets were re-homogenized in 50 mM Tris/5 mM EDTA (pH 7.4). Membranes were incubated with 0.8 nM [^3H]-N-methylhistamine plus/minus test compounds for 45 min at 25° C. and harvested by rapid filtration over GF/C glass fiber filters (pretreated with 0.3% polyethylenimine) followed by four washes with ice cold buffer. Filters were dried, added to 4 mL scintillation cocktail and then counted on a liquid scintillation counter. Non-specific binding was defined with 10 μM histamine. The pKi values were calculated based on a Kd of 800 pM and a ligand concentration ([L]) of 800 pM according to the formula: Ki=(IC50)/(1+([L]/(Kd))
As for `c1cc(OCCN2CCCCC2)ccc1CN1CCCCC1` [Example 20, 1-[2-(4-Piperidin-1-ylmethyl-phenoxy)-ethyl]-piperidine], the Ki worked out at 5 nM. Take `c1ccc2c(c1)CCN(Cc1ccc(OCCN3CCCCC3)cc1)C2` [Example 21, 2-[4-(2-Piperidin-1-yl-ethoxy)-benzyl]-1,2,3,4-tetrahydro-isoquinoline]: the Ki turned out to be 4 nM. On to `c1ccc(CN2CCN(c3ccc(OCCCN4CCCC4)cc3)CC2)cc1` [Example 24, 1-Benzyl-4-[4-(3-pyrrolidin-1-yl-propoxy)-phenyl]-piperazine], for which the Ki stood at 1.3 nM.

In the case of `c1cc(N2CCNCC2)ccc1OCCCN1CCCCC1` [Example 25, 1-[4-(3-Piperidin-1-yl-propoxy)-phenyl]-piperazine hydrochloride], the Ki worked out at 1 nM. Turning to `CC(C)N1CCN(c2ccc(OCCCN3CCCCC3)cc2)CC1` [Example 26, 1-Isopropyl-4-[4-(3-piperidin-1-yl-propoxy)-phenyl]-piperazine], the Ki came to 0.3 nM. `CN(C)CCOc1ccc(OCCCN2CCCCC2)cc1` [Example 29, Dimethyl-{2-[4-(3-piperidin-1-yl-propoxy)-phenoxy]-ethyl}-amine]: the inhibition constant (Ki) was determined as 2.3 nM. Regarding `c1cc(OCCN2CCCCC2)ccc1OCCCN1CCCCC1` [Example 30, 1-{3-[4-(2-Piperidin-1-yl-ethoxy)-phenoxy]-propyl}-piperidine], the Ki is 0.4 nM. Consider `c1cc(OCCCN2CCCCC2)ccc1OCCCN1CCCCC1` [Example 31, 1-{3-[4-(3-Piperidin-1-yl-propoxy)-phenoxy]-propyl}-piperidine], for which the Ki was found to be 0.5 nM. With `c1cc(-n2nnnc2SCCCN2CCCCC2)ccc1OCCCN1CCCCC1` [Example 32, 1-(3-{4-[5-(3-Piperidin-1-yl-propylsulfanyl)-tetrazol-1-yl]-phenoxy}-propyl)-piperidine], the Ki was 0.5 nM. As to `c1cc(-c2ncc(OCCCN3CCCCC3)cn2)ccc1OCCCN1CCCCC1` [Example 33, 5-(3-Piperidin-1-yl-propoxy)-2-[4-(3-piperidin-1-yl-propoxy)-phenyl]-pyrimidine], the inhibition constant (Ki) was determined as 13 nM. Consider `c1ccc(-c2ccc(OCCCN3CCCCC3)cc2)c(CN2CCCCC2)c1` [Example 34, 1-[3-(2′-Piperidin-1-ylmethyl-biphenyl-4-yloxy)-propyl]-piperidine], for which the Ki came to 1.5 nM. In the case of `c1ccc2c(c1)CCN(Cc1ccc(OCCCN3CCCCC3)cc1)C2` [Example 36, 2-[4-(3-Piperidin-1-yl-propoxy)-benzyl]-1,2,3,4-tetrahydro-isoquinoline], the Ki was found to be 0.7 nM. Consider `CN1CCCC1c1ccc(OCCCN2CCCCC2)cc1` (stereo not shown) [Example 37, 1-{3-[4-(1-Methyl-pyrrolidin-2-yl)-phenoxy]-propyl}-piperidine], for which the Ki was found to be 0.4 nM. Consider `c1ccc(NCc2ccc(OCCCN3CCCC3)cc2)nc1` [Example 39, Pyridin-2-yl-[4-(3-pyrrolidin-1-yl-propoxy)-benzyl]-amine], for which the Ki was 4.5 nM. Consider `CN(C)CCCOc1ccc(CN2CCCCC2)cc1` [Example 40, Dimethyl-[3-(4-piperidin-1-ylmethyl-phenoxy)-propyl]-amine], for which the Ki came to 5.7 nM. In the case of `c1ccc(NC2CCN(Cc3ccc(OCCCN4CCCCC4)cc3)CC2)nc1` [Example 41, {1-[4-(3-Piperidin-1-yl-propoxy)-benzyl]-piperidin-4-yl}-pyridin-2-yl-amine], the Ki was found to be 0.8 nM.

Take `CN(CCc1ccccc1)C1CCN(Cc2ccc(OCCCN3CCCCC3)cc2)CC1` [Example 42, Methyl-phenethyl-{1-[4-(3-piperidin-1-yl-propoxy)-benzyl]-piperidin-4-yl}-amine]: the Ki is 1.1 nM. On to `CN(Cc1ccccc1)C1CCN(Cc2ccc(OCCCN3CCCCC3)cc2)CC1` [Example 43, Benzyl-methyl-{1-[4-(3-piperidin-1-yl-propoxy)-benzyl]-piperidin-4-yl}-amine], for which the Ki came out at 0.5 nM. In the case of `c1cc(OCCCN2CCCCC2)ccc1CN1CCCCCCCCCCCC1` [Example 45, 1-[4-(3-Piperidin-1-yl-propoxy)-benzyl]-azacyclotridecane], the Ki came to 2.5 nM.

For the compound `c1ccc2c(c1)CCC2NCc1ccc(OCCCN2CCCCC2)cc1` (stereo not shown) [Example 47, Indan-1-yl-[4-(3-piperidin-1-yl-propoxy)-benzyl]-amine], the inhibition constant Ki turned out to be 1 nM. With `c1cc(OCCCN2CCCCC2)ccc1CN1CCCC1` [Example 48, 1-[3-(4-Pyrrolidin-1-ylmethyl-phenoxy)-propyl]-piperidine], the inhibition constant Ki came to 1.2 nM. In the case of `c1cc(OCCCN2CCCCC2)ccc1CNC1CCCCC1` [Example 49, Cyclohexyl-[4-(3-piperidin-1-yl-propoxy)-benzyl]-amine], the Ki amounted to 1 nM. As to `c1cc(OCCCN2CCCCC2)ccc1CNC1CC1` [Example 50, Cyclopropyl-[4-(3-piperidin-1-yl-propoxy)-benzyl]-amine], the Ki was 1 nM.

Consider `c1cc(OCCCN2CCOCC2)ccc1CN1CCCCC1` [Example 51, 4-[3-(4-Piperidin-1-ylmethyl-phenoxy)-propyl]-morpholine], for which the Ki was 4 nM. On to `CN1CCN(CCCOc2ccc(CN3CCCCC3)cc2)CC1` [Example 52, 1-Methyl-4-[3-(4-piperidin-1-ylmethyl-phenoxy)-propyl]-piperazine], for which the Ki is 25 nM. Take `CN1CCN(Cc2ccc(OCCCN3CCCCC3)cc2)CC1` [Example 53, 1-Methyl-4-[4-(3-piperidin-1-yl-propoxy)-benzyl]-piperazine]: the Ki came out at 2.5 nM.

As to `c1cc(OCCCN2CCCCC2)ccc1CN1CCC2(CC1)OCCO2` [Example 54, 8-[4-(3-Piperidin-1-yl-propoxy)-benzyl]-1,4-dioxa-8-aza-spiro[4.5]decane], the Ki came out at 1 nM. With `Clc1ccc(N2CC3CC2CN3Cc2ccc(OCCCN3CCCCC3)cc2)cc1` (stereo not shown) [Example 55, 2-(4-Chloro-phenyl)-5-[4-(3-piperidin-1-yl-propoxy)-benzyl]-2,5-diaza-bicyclo[2.2.1]heptane], the Ki turned out to be 1.4 nM. For the compound `NC(=O)C1CCN(Cc2ccc(OCCCN3CCCCC3)cc2)CC1` [Example 57, 1-[4-(3-Piperidin-1-yl-propoxy)-benzyl]-piperidine-4-carboxylic acid amide], the inhibition constant (Ki) worked out at 1 nM. For `c1ccc(CCCC2CCN(Cc3ccc(OCCCN4CCCCC4)cc3)CC2)cc1` [Example 58, 1-[4-(3-Piperidin-1-yl-propoxy)-benzyl]-4-(3-phenyl-propyl)-piperidine], the Ki was 1.9 nM. Regarding `CN(C)Cc1ccc(OCCCN2CCCCC2)cc1` [Example 59, Dimethyl-[4-(3-piperidin-1-yl-propoxy)-benzyl]-amine], the Ki came to 2 nM.

Staying with this assay, now noted: 0.8 nM [3H]-N-methylhistamine, 45 min at 25° C., SK-N-MC cell membranes; […]; read-out: Ki.
`OC1(c2ccc(OCCCN3CCCCC3)cc2)CCN(Cc2ccccc2)CC1` [Example 22, 1-Benzyl-4-[4-(3-piperidin-1-yl-propoxy)-phenyl]-piperidin-4-ol]: the inhibition constant Ki is 0.9 nM. Regarding `c1cc(N2CCNCC2)ccc1OCCCN1CCCC1` [Example 23, 1-[4-(3-Pyrrolidin-1-yl-propoxy)-phenyl]-piperazine hydrochloride], the Ki amounted to 1.3 nM. Still for that read-out and setting: the figure for `c1ccc(CN2CCN(c3ccc(OCCCN4CCCCC4)cc3)CC2)cc1` [Example 27, 1-Benzyl-4-[4-(3-piperidin-1-yl-propoxy)-phenyl]-piperazine] is 3 nM. With `c1ccc(N(CCN2CCCC2)C2CCN(Cc3ccc(OCCCN4CCCCC4)cc3)CC2)nc1` [Example 38, {1-[4-(3-Piperidin-1-yl-propoxy)-benzyl]-piperidin-4-yl}-pyridin-2-yl-(2-pyrrolidin-1-yl-ethyl)-amine], the Ki was 1.2 nM. For the compound `OCCC1CCN(Cc2ccc(OCCCN3CCCCC3)cc2)CC1` [Example 46, 2-{1-[4-(3-Piperidin-1-yl-propoxy)-benzyl]-piperidin-4-yl}-ethanol], the Ki worked out at 1.2 nM. For `c1ccc2c(c1)ncn2C1CCN(Cc2ccc(OCCCN3CCCCC3)cc2)CC1` [Example 60, 1-{1-[4-(3-Piperidin-1-yl-propoxy)-benzyl]-piperidin-4-yl}-1H-benzoimidazole], the Ki came out at 2 nM.
